What all share (type): biochemical
The target in one test is WRN (ext.) (Homo sapiens, UniProt Q14191). The test is described as follows: WRN ADP-Glo, Target #2. How it is done: (§1) Metal salt solutions for the metal ion interference set (MIIS) were prepared as 10 mM stock solutions in DMSO (see Table 3). All metal salts used have been purchased at highest industrial grade.
For orientation: ADP-Glo turns the ADP formed in a reaction into a luminescent signal.

In a further test the target is LSD1 (Homo sapiens, UniProt O60341). The test is described as follows: LSD1 DELFIA. Conditions: read-out: Target #1 IC50. The procedure: as §1
The next test relates to KRAS GDP. Description: KRAS AlphaScreen, Target #1. The procedure: as §1
On the technique in general: In Alpha technology, singlet oxygen from a donor bead excites a nearby acceptor bead.

For test [1], the system named is off-target. The test is described as follows: SOS1 AlphaScreen, Target #2. How it is done: as §1
In the next test the target is MDM2 (Homo sapiens, UniProt Q00987). The test is described as follows: MDM2 AlphaScreen, Target #1. How it is done: as §1
Another test concerns the target UPAR (Homo sapiens, UniProt Q03405). The test is described as follows: UPA-UPAR AlphaScreen, Target #1. The procedure:
as §1

A further test relates to off target. Description: KRAS AlphaScreen, Target #3. How it is done:
as §1

A further test deals with T1, SOS1 (Homo sapiens, UniProt Q07889).
T1 sequence (Q07889 1-1333): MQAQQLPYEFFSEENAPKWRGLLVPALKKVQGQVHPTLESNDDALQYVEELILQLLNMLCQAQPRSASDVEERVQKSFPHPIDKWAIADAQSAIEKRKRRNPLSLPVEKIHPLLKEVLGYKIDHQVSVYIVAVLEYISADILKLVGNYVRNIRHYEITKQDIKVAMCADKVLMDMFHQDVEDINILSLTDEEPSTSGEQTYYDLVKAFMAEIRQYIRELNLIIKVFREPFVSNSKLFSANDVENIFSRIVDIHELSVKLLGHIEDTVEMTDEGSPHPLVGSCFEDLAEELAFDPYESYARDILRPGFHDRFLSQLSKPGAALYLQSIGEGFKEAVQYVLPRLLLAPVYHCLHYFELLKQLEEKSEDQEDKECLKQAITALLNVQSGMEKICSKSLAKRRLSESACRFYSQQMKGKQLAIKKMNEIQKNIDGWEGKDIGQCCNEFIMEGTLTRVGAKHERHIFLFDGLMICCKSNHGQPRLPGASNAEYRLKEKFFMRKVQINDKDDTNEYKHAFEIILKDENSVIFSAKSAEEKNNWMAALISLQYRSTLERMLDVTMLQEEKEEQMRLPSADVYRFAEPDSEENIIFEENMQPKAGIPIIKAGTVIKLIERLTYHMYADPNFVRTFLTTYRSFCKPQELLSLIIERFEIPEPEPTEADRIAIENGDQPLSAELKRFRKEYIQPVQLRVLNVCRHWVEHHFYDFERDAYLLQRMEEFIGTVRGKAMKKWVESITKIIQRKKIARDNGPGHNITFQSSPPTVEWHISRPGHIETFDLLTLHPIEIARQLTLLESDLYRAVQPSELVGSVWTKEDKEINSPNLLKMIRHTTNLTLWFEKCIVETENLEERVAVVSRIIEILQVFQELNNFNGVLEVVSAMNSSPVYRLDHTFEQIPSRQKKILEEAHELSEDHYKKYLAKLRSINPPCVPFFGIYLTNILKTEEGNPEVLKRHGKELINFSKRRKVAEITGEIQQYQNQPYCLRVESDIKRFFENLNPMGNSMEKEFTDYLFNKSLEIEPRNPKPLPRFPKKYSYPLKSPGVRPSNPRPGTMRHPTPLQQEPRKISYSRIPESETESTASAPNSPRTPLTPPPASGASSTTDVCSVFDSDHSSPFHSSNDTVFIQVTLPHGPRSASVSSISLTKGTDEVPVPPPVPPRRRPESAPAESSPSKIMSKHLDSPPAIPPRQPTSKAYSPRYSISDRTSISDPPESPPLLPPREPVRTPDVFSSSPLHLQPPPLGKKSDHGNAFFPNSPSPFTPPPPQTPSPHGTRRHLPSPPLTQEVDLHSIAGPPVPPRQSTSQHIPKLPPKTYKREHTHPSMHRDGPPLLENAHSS
Description: SOS1 TR-FRET. Conditions: read-out: Target #1 IC50. The procedure: as §1
A general note: In TR-FRET formats the signal depends on donor and acceptor labels being close together.

The test system of test [2] is off-target. The test is described as follows: FKBP51 AlphaScreen, Target #2. How it is done:
as §1

Test [3] concerns off-target. Description: MDM2 AlphaScreen, Target #2. The procedure: as §1
A further test deals with KRAS GTP (Homo sapiens, UniProt P01116, G12D). The test is described as follows: KRAS AlphaScreen, Target #2. How it is done: as §1
Test [4] has as its system off-target. Description: UPA-UPAR AlphaScreen, Target #2. The procedure:
as §1

Another test concerns the target BCL6 (Homo sapiens, UniProt P41182). Description: BCL6 Fluorescence Polarization. To be noted: read-out: Target #1 IC50. How it is done: as §1
A further test concerns the target biotinylated GST (Schistosoma japonicum, UniProt P08515). The test is described as follows: Control assay (AlphaScreen Shortcut). How it is done:
This assay was developed to identify compounds that interfere with the assay format using AlphaLISA Glutathione Acceptor and AlphaScreen Streptavidin Donor beads. The assay was performed as described above using biotinylated GST as bridging reagent instead of KRAS^G12D and CRAF mix.

The target of the next test is KRAS (Homo sapiens, UniProt P01116). Description: KRAS TR-FRET (MIIS list). Conditions: read-out: Target #1 IC50. The procedure: as §1

The IC50 is the concentration that gives 50% inhibition.

Structures are written as SMILES. Where two headings read alike, the source gives them in different places.

WRN (ext.), sequence (Q14191 whole entry, species assumed): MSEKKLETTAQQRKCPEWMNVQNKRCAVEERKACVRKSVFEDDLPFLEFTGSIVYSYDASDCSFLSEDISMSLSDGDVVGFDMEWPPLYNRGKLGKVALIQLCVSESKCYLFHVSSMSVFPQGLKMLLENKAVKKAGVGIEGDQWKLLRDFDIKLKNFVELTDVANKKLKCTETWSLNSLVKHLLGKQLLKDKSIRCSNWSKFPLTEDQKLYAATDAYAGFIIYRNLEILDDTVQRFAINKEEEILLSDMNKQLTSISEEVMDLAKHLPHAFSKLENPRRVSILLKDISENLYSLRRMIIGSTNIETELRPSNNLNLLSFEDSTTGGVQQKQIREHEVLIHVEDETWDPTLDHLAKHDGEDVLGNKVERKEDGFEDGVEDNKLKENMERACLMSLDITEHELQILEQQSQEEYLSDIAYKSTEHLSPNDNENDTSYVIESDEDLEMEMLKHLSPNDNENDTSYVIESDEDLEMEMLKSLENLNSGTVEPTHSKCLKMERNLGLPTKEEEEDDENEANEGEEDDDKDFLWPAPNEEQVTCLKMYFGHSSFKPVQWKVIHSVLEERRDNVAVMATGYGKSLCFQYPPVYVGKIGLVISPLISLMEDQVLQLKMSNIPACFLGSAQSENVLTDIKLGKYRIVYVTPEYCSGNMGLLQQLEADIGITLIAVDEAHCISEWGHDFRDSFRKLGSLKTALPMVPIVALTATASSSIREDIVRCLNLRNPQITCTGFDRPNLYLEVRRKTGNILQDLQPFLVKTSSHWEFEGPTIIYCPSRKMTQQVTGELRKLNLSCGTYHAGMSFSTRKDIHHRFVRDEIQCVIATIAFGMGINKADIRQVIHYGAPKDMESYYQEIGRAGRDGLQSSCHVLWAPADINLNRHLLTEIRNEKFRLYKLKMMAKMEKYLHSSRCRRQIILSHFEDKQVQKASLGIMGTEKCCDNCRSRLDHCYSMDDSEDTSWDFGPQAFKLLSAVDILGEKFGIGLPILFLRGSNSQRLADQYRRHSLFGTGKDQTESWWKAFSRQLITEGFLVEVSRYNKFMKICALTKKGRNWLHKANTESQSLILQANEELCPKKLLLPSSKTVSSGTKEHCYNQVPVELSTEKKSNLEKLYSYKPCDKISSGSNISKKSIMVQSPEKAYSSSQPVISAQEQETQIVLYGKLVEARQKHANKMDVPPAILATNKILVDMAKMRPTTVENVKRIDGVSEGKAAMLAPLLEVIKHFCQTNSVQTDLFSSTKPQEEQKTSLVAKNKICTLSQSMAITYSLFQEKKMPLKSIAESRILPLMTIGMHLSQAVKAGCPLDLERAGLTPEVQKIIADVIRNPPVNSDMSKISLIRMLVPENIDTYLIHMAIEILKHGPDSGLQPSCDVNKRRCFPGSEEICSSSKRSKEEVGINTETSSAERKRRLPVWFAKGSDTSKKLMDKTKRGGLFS
KRAS GTP, sequence (P01116 1-169 isoform P01116-2 G12D): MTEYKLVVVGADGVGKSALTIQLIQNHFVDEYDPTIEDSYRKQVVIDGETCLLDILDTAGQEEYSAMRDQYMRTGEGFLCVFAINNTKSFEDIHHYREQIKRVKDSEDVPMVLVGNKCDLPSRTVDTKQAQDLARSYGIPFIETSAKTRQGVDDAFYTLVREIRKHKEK
MDM2, sequence (Q00987 whole entry, species assumed): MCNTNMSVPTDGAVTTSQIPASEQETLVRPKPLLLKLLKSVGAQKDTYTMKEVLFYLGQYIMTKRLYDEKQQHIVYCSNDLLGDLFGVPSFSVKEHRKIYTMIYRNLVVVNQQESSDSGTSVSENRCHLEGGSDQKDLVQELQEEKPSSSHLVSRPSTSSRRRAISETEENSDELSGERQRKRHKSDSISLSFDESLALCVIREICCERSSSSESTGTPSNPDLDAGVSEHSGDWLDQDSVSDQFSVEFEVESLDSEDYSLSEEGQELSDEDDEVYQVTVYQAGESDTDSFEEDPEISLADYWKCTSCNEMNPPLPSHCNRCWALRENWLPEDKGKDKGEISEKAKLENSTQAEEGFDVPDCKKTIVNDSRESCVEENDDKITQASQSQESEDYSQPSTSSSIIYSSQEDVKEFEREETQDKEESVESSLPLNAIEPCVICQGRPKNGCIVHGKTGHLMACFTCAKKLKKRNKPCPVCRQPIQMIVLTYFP
UPAR, sequence (Q03405 23-305 limits assumed, species assumed): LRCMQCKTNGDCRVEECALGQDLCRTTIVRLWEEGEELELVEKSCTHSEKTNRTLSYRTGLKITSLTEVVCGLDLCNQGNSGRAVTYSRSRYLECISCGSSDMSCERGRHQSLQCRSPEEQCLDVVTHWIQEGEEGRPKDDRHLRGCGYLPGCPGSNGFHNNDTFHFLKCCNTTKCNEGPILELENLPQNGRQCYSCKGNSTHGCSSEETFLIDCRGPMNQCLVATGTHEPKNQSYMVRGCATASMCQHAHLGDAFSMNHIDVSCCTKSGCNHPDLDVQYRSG
biotinylated GST, sequence (P08515 whole entry): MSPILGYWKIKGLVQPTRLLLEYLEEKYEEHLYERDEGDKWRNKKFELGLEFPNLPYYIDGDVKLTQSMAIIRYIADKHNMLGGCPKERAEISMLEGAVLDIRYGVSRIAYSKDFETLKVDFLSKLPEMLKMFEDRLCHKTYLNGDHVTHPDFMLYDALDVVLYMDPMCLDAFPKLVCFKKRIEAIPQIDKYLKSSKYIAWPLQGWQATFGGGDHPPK
KRAS, sequence (P01116 1-188 isoform P01116-2): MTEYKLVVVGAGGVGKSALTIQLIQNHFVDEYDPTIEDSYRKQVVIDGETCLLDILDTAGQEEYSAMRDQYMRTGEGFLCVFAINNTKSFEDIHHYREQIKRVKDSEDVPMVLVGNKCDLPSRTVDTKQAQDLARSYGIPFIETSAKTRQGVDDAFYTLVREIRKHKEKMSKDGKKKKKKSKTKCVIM

On to `[Cl-].[Cl-].[Mg+2]` [MgCl2, Magnesium chloride], for which the 50% inhibitory concentration (IC50) against WRN (ext.), on LSD1, with KRAS GDP, in the test on off-target [1], against MDM2 and against UPAR was over 10 µM each time. For the same molecule, the IC50 in the test on off target was over 10 µM; at SOS1, over 10 µM; with off-target [2], over 10 µM; with off-target [3] it was over 10 µM; at KRAS GTP, 1 to 10 µM; in the test on off-target [4], over 10 µM. Further, at BCL6, the half-maximal inhibitory concentration (IC50) was over 10 µM.
Regarding `[Cl][Pd][Cl]` [PdCl2, Palladium(II) chloride], the IC50 is 1 to 10 µM against WRN (ext.); 1 to 10 µM on LSD1; under 1 µM with KRAS GDP; over 10 µM in the test on off-target [1]; over 10 µM at MDM2; under 1 µM against UPAR. The IC50 was over 10 µM in the test on off target; 1 to 10 µM at SOS1; over 10 µM with off-target [2]; over 10 µM with off-target [3]; under 1 µM at KRAS GTP; 5.8 ± 0.7 µM at biotinylated GST (Batch 1, read-out: Control assay IC50). The IC50 on biotinylated GST (Luminescence, biotinylated GST, read-out: IC50, Control assay) is 5.8 ± 0.7 µM; in the test on off-target [4], under 1 µM; on BCL6 it was over 10 µM.
`[Cl][Mn][Cl]` [MnCl2, Manganese(II) chloride]: the IC50 on WRN (ext.), at LSD1, in the test with KRAS GDP, in the test with off-target [1], at MDM2 and against UPAR was over 10 µM in each case. Further, the IC50 with off target, at SOS1, in the test with off-target [2], in the test on off-target [3], on KRAS GTP and in the test on off-target [4] was over 10 µM throughout. Further, the half-maximal inhibitory concentration (IC50) at BCL6 was over 10 µM.
In the case of `[Cl-].[Cl-].[Co+2]` [CoCl2, Cobalt(II) chloride], the IC50 was over 10 µM at WRN (ext.); over 10 µM in the test on KRAS GDP; over 10 µM in the test on off-target [1]; over 10 µM at MDM2; 1 to 10 µM against UPAR; over 10 µM with off target. In addition, the IC50 at SOS1, in the test on off-target [2], with off-target [3], against KRAS GTP, in the test on off-target [4] and on BCL6 was over 10 µM throughout.
For the molecule `[Cl][Fe]([Cl])[Cl]` [FeCl3, Iron(III) chloride], the half-maximal inhibitory concentration (IC50) against WRN (ext.) is over 10 µM; at LSD1, over 10 µM; with KRAS GDP, 1 to 10 µM; in the test on off-target [1] it was over 10 µM; against MDM2, over 10 µM; against UPAR it was over 10 µM. Further, the 50% inhibitory concentration (IC50) with off target is over 10 µM; at SOS1, 1 to 10 µM; in the test with off-target [2], over 10 µM; in the test with off-target [3], over 10 µM; at KRAS GTP, 1 to 10 µM; in the test with off-target [4], over 10 µM. The IC50 at BCL6 is over 10 µM.
As to `[Cl][Cu][Cl]` [CuCl2, Copper(II) chloride], the IC50 at WRN (ext.) was 1 to 10 µM; at LSD1 it was over 10 µM; in the test with KRAS GDP it was over 10 µM; in the test on off-target [1] it was over 10 µM; at MDM2 it was over 10 µM; against UPAR, under 1 µM. In addition, the half-inhibitory concentration (IC50) in the test on off target, on SOS1, in the test with off-target [2], in the test with off-target [3], against KRAS GTP and in the test with off-target [4] was over 10 µM in each case. At BCL6, the half-maximal inhibitory concentration (IC50) is over 10 µM.
As for `CC(=O)[O-].[Ag+]` [Ag (CH 3COO), Silver acetate], the IC50 against WRN (ext.) is over 10 µM; on LSD1, 1 to 10 µM; in the test on KRAS GDP, over 10 µM; in the test on off-target [1], over 10 µM; on MDM2, over 10 µM; with off target, over 10 µM. The IC50 at SOS1 was under 1 µM; in the test with off-target [2], over 10 µM; on KRAS, under 1 µM; in the test with off-target [3], over 10 µM; against KRAS GTP, over 10 µM; on BCL6, over 10 µM.
`[Cl][Fe][Cl]` [FeCl2, Iron(II) chloride]: the IC50 against WRN (ext.) is over 10 µM; at LSD1, over 10 µM; in the test on KRAS GDP, 1 to 10 µM; in the test on off-target [1], over 10 µM; on MDM2, over 10 µM; against UPAR, over 10 µM. In addition, the concentration for half-maximal inhibition (IC50) in the test on off target is over 10 µM; on SOS1, 1 to 10 µM; with off-target [2], over 10 µM; on KRAS GTP it was 1 to 10 µM; in the test with off-target [4], over 10 µM; on BCL6, over 10 µM.
For `[Cl][Sn][Cl]` [SnCl2, Tin(II) chloride], the IC50 against WRN (ext.), at LSD1, with KRAS GDP, in the test with off-target [1], against MDM2 and at UPAR was over 10 µM each time. For the same molecule, the IC50 in the test on off target was over 10 µM; at SOS1, 1 to 10 µM; in the test on off-target [2] it was over 10 µM; in the test on off-target [3], over 10 µM; on KRAS GTP, 1 to 10 µM; in the test on off-target [4], over 10 µM. Further, on BCL6, the 50% inhibitory concentration (IC50) was over 10 µM.
Regarding `[Cl][Ni][Cl]` [NiCl2, Nickel(II) chloride], the IC50 against WRN (ext.) is over 10 µM; at LSD1, 1 to 10 µM; with KRAS GDP it was over 10 µM; in the test with off-target [1], over 10 µM; at MDM2, over 10 µM; on UPAR, under 1 µM. Further, the IC50 in the test on off target, at SOS1, in the test on off-target [2], in the test on off-target [3], on KRAS GTP and with off-target [4] was over 10 µM in each case. Also, at BCL6, the IC50 was over 10 µM.
Turning to `[Cl-].[Cl-].[Zn+2]` [ZnCl2, Zinc(II) chloride], the half-maximal inhibitory concentration (IC50) against WRN (ext.) is over 10 µM; at LSD1, over 10 µM; with KRAS GDP it was over 10 µM; in the test with off-target [1] it was over 10 µM; at MDM2, over 10 µM; against UPAR, under 1 µM. The IC50 in the test with off target, on SOS1, in the test with off-target [2], in the test with off-target [3], against KRAS GTP and in the test with off-target [4] was over 10 µM throughout. Besides, the half-inhibitory concentration (IC50) at BCL6 was over 10 µM.
Take `O=[N+]([O-])[O-].O=[N+]([O-])[O-].O=[N+]([O-])[O-].[Al+3]` [Al(NO3)3, Aluminum nitrate]: the concentration for half-maximal inhibition (IC50) is over 10 µM on WRN (ext.); 1 to 10 µM on LSD1; over 10 µM in the test on KRAS GDP; over 10 µM in the test with off-target [1]; over 10 µM against MDM2; over 10 µM against UPAR. The concentration for half-maximal inhibition (IC50) is over 10 µM with off target; over 10 µM at SOS1; 1 to 10 µM in the test with off-target [2]; over 10 µM in the test with off-target [3]; over 10 µM against KRAS GTP; over 10 µM in the test on off-target [4]. For the same molecule, the IC50 at BCL6 is over 10 µM.
